Article PMC4624480 (Biochemistry, 2015)
Converted amounts (≈) assume the structure as drawn.

Columns and labels:
[1] = biological target: E. coli MenE (ecMenE) (Escherichia coli, UniProt P37353); format: biochemical
[2] = test system: B. subtilis, MRSA and M. tuberculosis; assay: Antibacterial activity; format: cell-based; conditions: summary in text over B. subtilis, MRSA (S. aureus)
[3] = test system: menaquinone levels in S. aureus; assay: Quantification of menaquinone levels by LC-MS/MS; format: cell-based
[4] = test system: methicillin-resistant S. aureus (ATCC BAA-1762); assay: Growth rescue: MIC with exogenous MK4, MRSA; format: cell-based; conditions: exogenous 10 μg/mL MK4 added to the synthetic growth media
[5] = biological target: ecMenE (wild-type) (Escherichia coli, UniProt P37353); assay: Isothermal titration calorimetry, wild-type ecMenE; conditions: ITC, wt ecMenE
[6] = test system: B. subtilis (ATCC 6057); assay: Antibacterial activity; format: cell-based
[7] = test system: M. tuberculosis (H37Rv); assay: Antibacterial activity; format: cell-based
[8] = test system: methicillin-resistant S. aureus (ATCC BAA-1762); assay: Antibacterial activity; format: cell-based
[9] = test system: Vero (monkey kidney epithelial) cells; assay: Cytotoxicity, Trypan Blue; format: cell-based; conditions: minimum concentration giving ~90% cell death
[10] = test system: E. coli (K-12); assay: Antibacterial activity; conditions: aerobic, MIC-99 by visual inspection
[11] = test system: M. tuberculosis (H37Rv); assay: Growth rescue: MIC with exogenous MK4, M. tuberculosis; format: cell-based; conditions: exogenous 10 μg/mL MK4 added to the synthetic growth media
[12] = pKa of the OSB analogue; conditions: pKa of the OSB analogue (side chain)

Chain of ecMenE (wild-type) (P37353 whole entry): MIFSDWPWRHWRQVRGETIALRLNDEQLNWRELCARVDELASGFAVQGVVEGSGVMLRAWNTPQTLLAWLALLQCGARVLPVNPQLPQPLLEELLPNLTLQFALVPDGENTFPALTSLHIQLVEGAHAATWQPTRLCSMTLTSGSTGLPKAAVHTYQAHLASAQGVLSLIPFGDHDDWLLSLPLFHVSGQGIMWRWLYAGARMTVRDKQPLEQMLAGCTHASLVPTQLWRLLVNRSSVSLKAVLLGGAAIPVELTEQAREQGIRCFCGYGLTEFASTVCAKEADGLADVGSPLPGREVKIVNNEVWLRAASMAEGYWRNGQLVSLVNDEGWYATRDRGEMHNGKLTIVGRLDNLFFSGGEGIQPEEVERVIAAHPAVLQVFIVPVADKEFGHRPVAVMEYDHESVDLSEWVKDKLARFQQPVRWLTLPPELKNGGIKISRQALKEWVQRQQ
Chain of E. coli MenE (ecMenE) (P37353 whole entry): as above

In the case of `O=C(O)CCC(=O)c1ccccc1C(=O)O` [OSB, o-succinylbenzoate], the Km ([1]; read-out: KM OSB, wt ecMenE, pH 7.4, 25°C) is reported as 1 ± 0.02 µM and the kcat ([1]; wt ecMenE, substrate OSB) is reported as 0.767 ± 0.002 s⁻¹.

For `Nc1ncnc2c1ncn2[C@@H]1O[C@H](COS(=O)(=O)NC(=O)CCC(=O)c2ccccc2C(=O)O)[C@@H](O)[C@H]1O` [compound 1, OSB-AMS], the MIC [2] was 30 to 125 µg/mL, the “decrease in MK levels” value ([3]; MRSA, 15.6 μM OSB-AMS (half-MIC)) was ~ 60% and the “decrease in the levels of all menaquinones” value ([3]; S. aureus treated with OSB-AMS below its MIC) was 3–5 fold. For the same molecule, the “MIC + MK4” value [4] was > 250 µg/mL, the ΔG [5] was -10.0 kcal/mol and the ΔH [5] was -2.0 ± 0.1 kcal/mol. It also gave a Kd ([5]; read-out: Kd OSB-AMS) of 44 ± 11 nM, an MIC [6] of 62.5 µg/mL (≈ 114 µM) and an MIC [7] of 125 µg/mL (≈ 227 µM). For the same molecule, the MIC ([8]; MRSA (ATCC BAA-1762)) was 31.25 µg/mL (≈ 56.8 µM), the “antibacterial activity lower than the IC50 for enzyme inhibition” value ([8]; antibacterial activity vs enzyme IC50) was ~ 1000 fold and the Cytotoxicity [9] was 125 µg/mL. For the same molecule, the MIC [10] was > 500 µg/mL and the “MIC + MK4” value [11] was > 250 µg/mL.

For MSB-AMS [compound 2], the pKa [12] was 4, the “effect on MenE activity” value [1] was “did not affect MenE activity” and the “inhibition of ecMenE” value [1] was “no inhibition”.
